Laboratory results: ChEMBL document CHEMBL1201862, “PubChem BioAssay data set” (2004)
Activity calls are given as the source filed them.

Legend:
Type in all cases: functional
[1] = target: T1, Caspase-3 (Homo sapiens, UniProt P42574);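 further: Dose-response selectivity test against caspase-3 for candidate inhibitors of sentrin-specific proteases (SENPs)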
T1 sequence (P42574 whole entry): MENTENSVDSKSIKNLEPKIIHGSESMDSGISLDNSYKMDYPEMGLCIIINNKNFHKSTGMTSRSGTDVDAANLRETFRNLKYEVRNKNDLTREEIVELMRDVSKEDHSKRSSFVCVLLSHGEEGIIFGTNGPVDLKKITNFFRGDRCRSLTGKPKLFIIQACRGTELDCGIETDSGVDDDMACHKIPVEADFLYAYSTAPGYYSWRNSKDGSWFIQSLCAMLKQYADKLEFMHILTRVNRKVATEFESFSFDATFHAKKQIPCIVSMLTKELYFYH

[2] = target: T2, Sentrin-specific protease 8 (Homo sapiens, UniProt Q96LD8);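 further: luminescence read-out of SENP8 inhibition, dose-response confirmation following an ultra-high-throughput screen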
T2 sequence (Q96LD8 whole entry): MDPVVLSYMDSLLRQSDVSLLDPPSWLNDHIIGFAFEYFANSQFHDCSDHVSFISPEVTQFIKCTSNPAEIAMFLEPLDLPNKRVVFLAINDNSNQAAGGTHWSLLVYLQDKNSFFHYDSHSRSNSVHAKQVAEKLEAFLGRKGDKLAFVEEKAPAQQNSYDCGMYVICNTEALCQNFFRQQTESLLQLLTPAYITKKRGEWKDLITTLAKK

[3] = target: T3, Replicative DNA helicase DnaB (Mycobacterium tuberculosis, UniProt P9WMR3); assay: DnaB intein splicing inhibitors, dose response, biochemical, cell-free fluorescence (AID 449749)
T3 sequence (P9WMR3 whole entry): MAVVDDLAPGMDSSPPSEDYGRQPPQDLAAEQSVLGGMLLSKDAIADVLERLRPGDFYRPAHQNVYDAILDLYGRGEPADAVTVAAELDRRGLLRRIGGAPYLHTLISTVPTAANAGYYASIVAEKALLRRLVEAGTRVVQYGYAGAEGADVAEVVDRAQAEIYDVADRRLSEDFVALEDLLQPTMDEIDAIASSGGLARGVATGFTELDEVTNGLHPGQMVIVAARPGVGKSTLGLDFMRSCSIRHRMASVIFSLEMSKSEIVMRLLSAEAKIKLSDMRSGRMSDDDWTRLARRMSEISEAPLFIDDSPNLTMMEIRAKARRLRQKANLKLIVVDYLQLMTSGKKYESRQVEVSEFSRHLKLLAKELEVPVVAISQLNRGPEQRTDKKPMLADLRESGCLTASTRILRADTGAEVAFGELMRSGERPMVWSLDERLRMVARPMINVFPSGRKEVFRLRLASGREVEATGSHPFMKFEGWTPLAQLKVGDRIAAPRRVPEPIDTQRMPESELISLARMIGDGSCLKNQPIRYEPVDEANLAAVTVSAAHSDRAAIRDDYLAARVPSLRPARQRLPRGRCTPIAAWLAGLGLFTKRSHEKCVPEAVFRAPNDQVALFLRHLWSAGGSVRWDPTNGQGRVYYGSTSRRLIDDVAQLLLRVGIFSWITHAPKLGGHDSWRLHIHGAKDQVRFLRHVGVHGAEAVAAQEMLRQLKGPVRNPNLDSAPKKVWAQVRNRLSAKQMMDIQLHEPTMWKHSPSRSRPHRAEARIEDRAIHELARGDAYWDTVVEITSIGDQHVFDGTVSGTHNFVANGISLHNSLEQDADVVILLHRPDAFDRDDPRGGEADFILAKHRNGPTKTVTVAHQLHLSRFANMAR

[4] = target: T4, Leucine aminopeptidase (Plasmodium falciparum 3D7, UniProt Q8IL11); assay: P. falciparum M17LAP inhibitors, primary screen, biochemical, fluorogenic H-Leu-NHMec substrate, 1536-well (AID 1619)
T4 sequence (Q8IL11 whole entry): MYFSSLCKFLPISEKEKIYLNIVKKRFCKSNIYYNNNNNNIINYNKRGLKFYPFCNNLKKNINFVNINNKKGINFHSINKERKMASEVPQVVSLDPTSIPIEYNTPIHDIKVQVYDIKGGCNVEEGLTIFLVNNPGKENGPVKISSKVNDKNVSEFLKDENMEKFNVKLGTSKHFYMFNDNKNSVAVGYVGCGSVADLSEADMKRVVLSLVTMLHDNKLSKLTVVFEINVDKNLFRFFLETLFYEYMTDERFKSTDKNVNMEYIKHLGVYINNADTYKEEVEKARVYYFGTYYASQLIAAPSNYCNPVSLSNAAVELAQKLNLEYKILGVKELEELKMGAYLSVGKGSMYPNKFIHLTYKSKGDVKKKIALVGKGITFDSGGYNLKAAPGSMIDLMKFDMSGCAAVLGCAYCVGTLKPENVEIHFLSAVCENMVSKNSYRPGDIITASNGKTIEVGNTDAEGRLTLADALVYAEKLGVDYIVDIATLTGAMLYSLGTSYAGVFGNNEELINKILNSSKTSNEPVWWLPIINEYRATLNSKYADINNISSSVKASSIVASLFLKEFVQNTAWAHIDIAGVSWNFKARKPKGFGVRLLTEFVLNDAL

| SMILES | IC50 [1] | IC50 [2] | AC50 [3] | IC50 [4] |
| --- | --- | --- | --- | --- |
| c1ccc2c(Nc3nnc(-c4ccncc4)s3)cccc2c1 | 18.5 µM (active) | > 100 µM (inactive) | – | – |
| N#Cc1c(O)nc(SCC(=O)N2c3ccccc3Sc3ccccc32)nc1-c1ccccc1 | – | – | 2.41 µM (active) | 10.2 µM (active) |
| COc1cc(C(=O)c2nccc3cc(OC)c(OC)cc23)c([N+](=O)[O-])cc1OC | 31.9 µM (active) | 4.97 µM (active) | 0.273 µM (active) | – |
| N=C1S/C(=C\c2ccc(-c3ccccc3C(=O)O)o2)C(=O)N1c1ccc2c(c1)OCO2 | – | – | – | 29 µM (active) |
